Among the test systems are OVCAR-4 ovarian; MCF7 breast; SNB-75 CNS; K-562 leukemia; CAKI-1 renal; ACHN renal; SF-539 CNS; NCI-H226 lung.
Holding throughout (assay): NCI-60 cell line screen, 48 h

Among the data in PubChem BioAssay (NCI) are GI50 and TGI values, retold here.

Structures are written as SMILES. Where “and” joins values, the source holds several entries; their conditions need not be identical. Equal entries are not always repeated.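 Where inhibition never reached the appropriate level, the endpoint shown equals the highest concentration tested. Otherwise, values were interpolated linearly from a five-concentration, 48-hour dose response in 96-well plates. GI50 marks 50% less growth. The concentration for full growth arrest is given as TGI.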

Turning to `COc1cc(/C=C/[N+](=O)[O-])cc(OC)c1OC`, the GI50 was 3.22 µM with OVCAR-4 ovarian; 3.08 µM with MCF7 breast; 2.4 µM in the experiment with SNB-75 CNS; 2.81 µM with K-562 leukemia; 1.49 µM with CAKI-1 renal; 1.83 µM with ACHN renal. In addition, the GI50 with SF-539 CNS was 2.19 µM; with NCI-H226 lung, 2.1 µM. In addition, the TGI in the experiment with OVCAR-4 ovarian was 11.5 µM; in the experiment with MCF7 breast, 14.6 µM; in the experiment with SNB-75 CNS it was 6.11 µM; in the experiment with K-562 leukemia, more than 100 µM; in the experiment on CAKI-1 renal, 7.39 µM; in the experiment with ACHN renal it was 3.46 µM. The TGI in the experiment on SF-539 CNS is 4.36 µM; in the experiment on NCI-H226 lung, 5.5 µM.

As for `CCN1C(=O)N(CC)C2C1NN=c1s/c(=C\c3ccc[nH]3)c(=O)n12` (stereo not drawn), the GI50 is 1.68 µM with OVCAR-4 ovarian; 0.273 µM in the experiment on MCF7 breast; 0.14 µM with SNB-75 CNS; 0.245 µM in the experiment on K-562 leukemia; 0.301 µM in the experiment on CAKI-1 renal; 0.538 µM with ACHN renal. In addition, the GI50 in the experiment on SF-539 CNS is 0.246 µM. Besides, the TGI in the experiment on OVCAR-4 ovarian is more than 100 µM; in the experiment with MCF7 breast, more than 100 µM; in the experiment on SNB-75 CNS it was 0.598 µM; in the experiment with K-562 leukemia, more than 100 µM; in the experiment on CAKI-1 renal, more than 100 µM; in the experiment on ACHN renal, more than 100 µM. The TGI in the experiment with SF-539 CNS was 1.05 µM; in the experiment with NCI-H226 lung, more than 100 µM.

Consider `O=c1c(O)cccn1CCCN(CCCn1cccc(O)c1=O)CCn1cccc(O)c1=O`, for which the GI50 with OVCAR-4 ovarian is 3.95 µM; in the experiment with MCF7 breast it was 3.89 µM; in the experiment with SNB-75 CNS, 6.1 µM; in the experiment on K-562 leukemia it was 3.97 µM; in the experiment on CAKI-1 renal, 4.79 µM; in the experiment on ACHN renal, 7.15 µM. In addition, the GI50 is 3.12 µM in the experiment with SF-539 CNS and 2.27 µM in the experiment with NCI-H226 lung. Besides, the TGI is more than 100 µM in the experiment with OVCAR-4 ovarian; more than 100 µM with MCF7 breast; 88.2 µM in the experiment with SNB-75 CNS; more than 100 µM in the experiment with K-562 leukemia; more than 100 µM in the experiment on CAKI-1 renal; more than 100 µM with ACHN renal. Besides, the TGI is more than 100 µM in the experiment with SF-539 CNS and 61.8 µM in the experiment with NCI-H226 lung.

For the compound `C[C@@H]1COCCN1c1cc(-c2ccnn2C)c2ccnc(-c3ccn[nH]3)c2n1`, the GI50 with OVCAR-4 ovarian was 0.109 µM and 0.181 µM; with MCF7 breast, 0.0158 µM and 0.0425 µM; in the experiment with SNB-75 CNS, 0.087 µM and 0.219 µM; with K-562 leukemia, 0.0844 µM and 0.384 µM; in the experiment on CAKI-1 renal it was 0.125 µM and 0.223 µM; in the experiment with ACHN renal, 0.0417 µM. Further, the GI50 with SF-539 CNS is 0.0704 µM and 0.142 µM; in the experiment on NCI-H226 lung it was 0.241 µM and 0.474 µM. Also, the TGI in the experiment on OVCAR-4 ovarian was 1.74 µM; in the experiment with MCF7 breast it was 23.8 µM and > 100 µM; in the experiment on SNB-75 CNS, 0.596 µM and 1.8 µM; in the experiment with K-562 leukemia, more than 100 µM; in the experiment on CAKI-1 renal it was 0.9 µM and 1.8 µM; in the experiment on ACHN renal, 0.596 µM. The TGI in the experiment on SF-539 CNS is 0.547 µM and 1.23 µM.

Take `CCN(CC)C(=O)COc1cc2c(O)c3c(O)c(C)c4c(c13)C(=O)C(C)(OC=CC(OC)C(C)C(OC(C)=O)C(C)C(O)C(C)C(O)C(C)C=CC=C(C)C(=O)N2)O4` (stereo not drawn): the TGI in the experiment with OVCAR-4 ovarian, in the experiment with MCF7 breast, in the experiment on SNB-75 CNS, with K-562 leukemia, with CAKI-1 renal and with ACHN renal was more than 100 µM in each case. The TGI with NCI-H226 lung is more than 100 µM.

As for `C=C1CC[C@@H]2[C@](C)(COC(C)=O)[C@H](OC(C)=O)CC[C@@]2(C)[C@@H]1CC(Nc1ccc(S(=O)(=O)Nc2nccs2)cc1)C1=CCOC1=O` (stereo partly drawn), the GI50 with OVCAR-4 ovarian was 4.53 µM; in the experiment with MCF7 breast, 2.59 µM; in the experiment with SNB-75 CNS, 2.83 µM; in the experiment with K-562 leukemia, 3.6 µM; in the experiment on CAKI-1 renal, 3.8 µM; in the experiment on ACHN renal, 5.99 µM. Besides, the results for the GI50 in the experiment with SF-539 CNS and with NCI-H226 lung were 2.35 µM and 2.36 µM, respectively. The TGI was determined as 17.7 µM in the experiment on OVCAR-4 ovarian; 13.6 µM in the experiment with MCF7 breast; 15.6 µM in the experiment with SNB-75 CNS; 29 µM in the experiment on K-562 leukemia; 14.2 µM in the experiment on CAKI-1 renal; 18.9 µM with ACHN renal. The TGI in the experiment with SF-539 CNS is 6.31 µM; with NCI-H226 lung, 5.37 µM.

On to `Nc1n[nH]c(N)c1N=Nc1ccc(O)cc1`, for which the GI50 was 19 µM with OVCAR-4 ovarian; 23.5 µM with MCF7 breast; 18.5 µM in the experiment on SNB-75 CNS; 9.17 µM in the experiment with K-562 leukemia; 14.7 µM in the experiment with CAKI-1 renal; 15.6 µM in the experiment on ACHN renal. In addition, the GI50 with SF-539 CNS was 13.1 µM; in the experiment with NCI-H226 lung it was 17.7 µM. The TGI is 74.7 µM in the experiment with OVCAR-4 ovarian; 90.8 µM with MCF7 breast; 41.6 µM with SNB-75 CNS; more than 100 µM in the experiment on K-562 leukemia; 63.9 µM in the experiment with CAKI-1 renal; 61.1 µM in the experiment with ACHN renal. Besides, the TGI was determined as 36.4 µM in the experiment on SF-539 CNS and 67.5 µM with NCI-H226 lung.

Turning to `O=c1cccc(C#CC#CCCCO)o1`, the GI50 in the experiment on OVCAR-4 ovarian was 8.59 µM; in the experiment on MCF7 breast, 5.02 µM; in the experiment on SNB-75 CNS, 18.2 µM; in the experiment on K-562 leukemia, 4.08 µM; in the experiment on CAKI-1 renal it was 2.9 µM; with ACHN renal it was 12.4 µM. Further, the figures for the GI50 in the experiment on SF-539 CNS and with NCI-H226 lung were 4.6 µM and 13.8 µM, respectively. In addition, the TGI was more than 57.9 µM in the experiment with OVCAR-4 ovarian; 38.3 µM in the experiment on MCF7 breast; 66.3 µM with SNB-75 CNS; more than 100 µM with K-562 leukemia; 8.17 µM in the experiment with CAKI-1 renal; 24.9 µM with ACHN renal. Moreover, the TGI in the experiment on SF-539 CNS was more than 43.5 µM; with NCI-H226 lung, 32.5 µM.

Turning to `CCN(C(=O)CN1CCN(c2cc3c(cc2F)c(=O)c(C(=O)O)cn3CC)CC1)c1nc(-c2ccccc2)cs1`, the GI50 in the experiment on OVCAR-4 ovarian was 0.347 µM; with MCF7 breast, 0.295 µM; in the experiment with SNB-75 CNS, 0.32 µM; in the experiment on K-562 leukemia it was 0.337 µM; with CAKI-1 renal, 0.312 µM; with ACHN renal it was 0.33 µM. The GI50 is 0.337 µM in the experiment with SF-539 CNS and 0.477 µM in the experiment with NCI-H226 lung. Besides, the TGI with OVCAR-4 ovarian, in the experiment on MCF7 breast, in the experiment on SNB-75 CNS, in the experiment with K-562 leukemia, in the experiment with CAKI-1 renal and in the experiment with ACHN renal was more than 100 µM in each case. The TGI in the experiment with SF-539 CNS and in the experiment on NCI-H226 lung was more than 100 µM each time.
